From ChEMBL document CHEMBL4130573, “Antitubercular and Cytotoxic Chlorinated seco-Cyclohexenes from Uvaria alba” (J Nat Prod, 2017)
Converted amounts (≈) assume the structure as drawn. The source made the active and inactive calls. No cut-off for these calls is given here.

Columns and labels:
[1] = system: Mycobacterium tuberculosis; assay: Antitubercular activity against Mycobacterium tuberculosis H37Rv by MABA method; assay type: functional
[2] = system: HeLa; assay: Cytostatic activity against human HeLa cells at 1 to 50 uM by Cell-titer blue assay; assay type: functional, cell-based
[3] = system: HUVEC; assay: Antiproliferative activity against HUVEC cells by Cell-titer blue assay; assay type: functional, cell-based; settings: Homo sapiens
[4] = system: K562; assay: Antiproliferative activity against human K562 cells by Cell-titer blue assay; assay type: functional, cell-based
[5] = system: HeLa; assay: Cytotoxic activity against human HeLa cells by Cell-titer blue assay; assay type: functional, cell-based

Structure (SMILES): CC(=O)OC/C(=C\[C@@H](Cl)[C@H](O)COC(=O)c1ccccc1)COC(=O)c1ccccc1
- MIC [1]: 26 µM (≈ 11.6 µg/mL)
- Activity [2]: Active

Structure (SMILES): O=C(OC/C=C\[C@H](Cl)[C@@](O)(CO)COC(=O)c1ccccc1)c1ccccc1 (relative stereo)
- MIC [1]: 38 µM (≈ 15.4 µg/mL)
- IC50 [3]: > 45 µM
- IC50 [4]: > 45 µM
- IC50 [5]: > 45 µM

Structure (SMILES): CC(=O)O[C@@H]1C(=O)C=COC=C1COC(=O)c1ccccc1
- MIC [1]: 25 µM (≈ 7.56 µg/mL)
- IC50 [3]: 9.9 µM
- IC50 [4]: 7.9 µM
- IC50 [5]: 25.5 µM
